Assays:
PTPN2 = molecular target: T1, PTPN2 (Homo sapiens, UniProt P17706); experiment: PTP inhibition assay with DiFMUP substrate (IC50); format: biochemical; details: DiFMUP 10 μM as substrate
T1 construct: PTPN2, residues 1-387; made in house; host or cells: E. coli BL21(DE3)
T1 sequence (P17706 1-387 isoform P17706-2): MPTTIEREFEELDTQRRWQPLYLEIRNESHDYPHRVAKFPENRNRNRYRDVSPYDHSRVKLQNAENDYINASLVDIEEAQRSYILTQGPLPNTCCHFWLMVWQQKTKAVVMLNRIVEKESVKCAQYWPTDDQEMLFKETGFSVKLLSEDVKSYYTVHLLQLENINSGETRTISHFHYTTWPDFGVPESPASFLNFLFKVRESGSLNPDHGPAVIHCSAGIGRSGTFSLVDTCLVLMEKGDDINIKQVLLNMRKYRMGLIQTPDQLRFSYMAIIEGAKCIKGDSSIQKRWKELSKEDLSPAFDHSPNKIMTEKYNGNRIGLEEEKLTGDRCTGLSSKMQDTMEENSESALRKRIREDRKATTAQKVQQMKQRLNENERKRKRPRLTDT
Procedure: E. coli BL21(DE3) (Novagen) was used as an expression host and the induction of protein expression was carried out in LB media with 1 mM IPTG at 18 °C overnight. Cell pellets were stored at −80 °C for subsequent protein purification.
Protein purification of PTPs for enzymatic assays was conducted at 4 °C. Frozen cell pellets were lysed by sonication in 40 ml cold lysis buffer (50 mM Tris-HCl, pH 8.0, 150 mM NaCl, 5 mM imidazole, and 1 mM PMSF) per litre cell pellet. Cell lysates were clarified by centrifugation using a Beckman JA-18 rotor for 15 min at 5308 x g. The supernatant was incubated with HisPur Ni-NTA resin (Thermo Scientific) for 2 h and then packed onto a column and washed with 50 resin volume of buffer A (50 mM Tris-HCl, pH 8.0, 500 mM NaCl, 5 mM imidazole). The His-tagged proteins were eluted with Buffer B (50 mM Tris-HCl, pH=8.0, 500 mM NaCl, 300 mM imidazole,). Pooled His-protein-containing fractions were concentrated, loaded onto a HiLoad 26/600 Superdex 75 column (GE Healthcare Biosciences) and eluted with storage buffer (50 mM Tris-HCl, pH 8.0, 150 mM NaCl, 1 mM DTT, 10% glycerol). […] The protein was aliquoted and stored at −80 °C.
(§1) The PTP kinetic assay was modified from previous reported protocols[73],[74]. […] The fluorescence signal was measured using a CLARIOstar Plus Microplate Spectrophotometer (BMG Labtech) using excitation and emission wavelengths of 340 nm and 450 nm, respectively. […]
(§2) To determine the mode of inhibition, the reactions were initiated by the addition of enzyme (final concentration for PTP1B and PTPN2 was 0.05 nM) to the reaction mixtures (0.2 ml) containing various concentrations of DiFMUP with different concentrations of the inhibitor. […] The fluorescence signal was measured using a CLARIOstar Plus Microplate Spectrophotometer (BMG Labtech) using excitation and emission wavelength of 340 nm and 450 nm, respectively. […]

PTP1B = molecular target: T2, PTP1B (Homo sapiens, UniProt P18031); experiment: PTP inhibition assay with DiFMUP substrate (IC50); format: biochemical
T2 construct: PTP1B, residues 1-321; made in house; host or cells: E. coli BL21(DE3)
T2 sequence (P18031 1-321): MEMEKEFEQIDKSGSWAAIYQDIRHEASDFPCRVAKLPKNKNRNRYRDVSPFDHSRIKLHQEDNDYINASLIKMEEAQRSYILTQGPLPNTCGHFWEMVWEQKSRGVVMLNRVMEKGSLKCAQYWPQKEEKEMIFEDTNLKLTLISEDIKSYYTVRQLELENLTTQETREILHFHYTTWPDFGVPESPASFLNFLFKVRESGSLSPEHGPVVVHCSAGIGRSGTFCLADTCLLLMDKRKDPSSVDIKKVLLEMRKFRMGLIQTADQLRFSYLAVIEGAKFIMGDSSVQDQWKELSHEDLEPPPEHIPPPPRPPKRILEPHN
Procedure: Cell pellets were stored at −80 °C for subsequent protein purification.
Protein purification of PTPs for enzymatic assays was conducted at 4 °C. Frozen cell pellets were lysed by sonication in 40 ml cold lysis buffer (50 mM Tris-HCl, pH 8.0, 150 mM NaCl, 5 mM imidazole, and 1 mM PMSF) per litre cell pellet. […] The supernatant was incubated with HisPur Ni-NTA resin (Thermo Scientific) for 2 h and then packed onto a column and washed with 50 resin volume of buffer A (50 mM Tris-HCl, pH 8.0, 500 mM NaCl, 5 mM imidazole). The His-tagged proteins were eluted with Buffer B (50 mM Tris-HCl, pH=8.0, 500 mM NaCl, 300 mM imidazole,). […]
as §1, §2

IC50 (PTPN2): 1.6 ± 0.06 nM | IC50 (PTP1B; DiFMUP 10 μM as substrate): 1.84 ± 0.09 nM | IC50 values relative to those of Compound 182 (PTP1B; PTP1B and PTPN2, same conditions): approximately 3 fold
Structure (SMILES): CC(C)CCN[C@@H]1CCc2cc(O)c(N3CC(=O)NS3(=O)=O)c(F)c2C1 [ABBV-CLS-484]

— article PMC10374545, “A small molecule inhibitor of PTP1B and PTPN2 enhances T cell anti-tumor immunity” (Nature Communications, 2023)
